According to patent US20240218022A1, “ANTI-VISTA MACROCYCLIC PEPTIDES AND COMPOSITIONS” (BRISTOL-MYERS SQUIBB COMPANY, priority 2022, published 2024):
pIC50: −log10 of the molar value. Read-outs that look alike come from different tables or passages of the source. Each block holds one molecule with its values, some of them ahead of it. Starred links: 1 amine or outer side, 2 acyl side, 3 side chain; linkers in the order of their positions; H or OH if unused. Positions of bridges follow the written chain, without caps; N, C: chain ends. Non-standard residues stand in square brackets, D forms with d. Residues, ends and D or L forms follow the SMILES beside them. *: point of attachment. γGlu = O=C(O)[C@H](CCC(=O)[*:2])N[*:1]; 2Nal = N[C@@H](Cc1ccc2ccccc2c1)C(=O)O; βAsp = O=C(O)[C@H](CC(=O)[*:2])N[*:1]; Tic = O=C(O)[C@@H]1Cc2ccccc2CN1; Cit = NC(=O)NCCC[C@H](N)C(=O)O; NMeL = CN[C@@H](CC(C)C)C(=O)O; Ahp(2) = CCCCC[C@H](N)C(=O)O; NMeNle = CCCC[C@H](NC)C(=O)O; Tle = CC(C)(C)[C@H](N)C(=O)O; NHexGly = CCCCCCNCC(=O)O; Nle = CCCC[C@H](N)C(=O)O; Orn = NCCC[C@H](N)C(=O)O; Aun = NCCCCCCCCCCC(=O)O; AEEA = NCCOCCOCC(=O)O; Allyl = C=CC*

Biological target: T1, mouse VISTA (mVISTA) (Mus musculus, UniProt Q9D659)
T1 construct: expressed in transfected cells; host or cells: Human embryonic kidney 293T cells
T1 sequence (Q9D659 33-308): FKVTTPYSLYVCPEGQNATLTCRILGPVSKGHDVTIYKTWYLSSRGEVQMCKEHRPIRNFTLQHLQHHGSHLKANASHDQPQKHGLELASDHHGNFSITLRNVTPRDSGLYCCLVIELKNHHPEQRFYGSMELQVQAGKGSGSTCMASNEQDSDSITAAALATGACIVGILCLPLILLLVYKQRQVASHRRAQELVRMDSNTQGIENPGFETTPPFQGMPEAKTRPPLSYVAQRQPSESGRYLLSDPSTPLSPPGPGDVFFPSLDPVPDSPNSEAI
Test: Cell-Based Binding High-Content Assay For mVISTA (HC CBA mVISTA)
How it was run: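 293T cells expressing mouse VISTA, with compounds added either after seeding ("no wash") or before seeding and then washed out after 1 h. Biotinylated peptide 2 nM for 30 min at room temperature, then detection with Alexa 647–streptavidin. After fixation with Hoechst stain, plates were high-content imaged; IC50 from four-parameter logistic fit.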

[1] = 293T cells expressing mouse VISTA, competition with biotinylated peptide (2 nM), read-out: HC CBA mVISTA IC50
[2] = cell-based binding high-content assay, mVISTA, the 15th table, read-out: HC CBA mVISTA IC50

SMILES: CCCCCCN1CC(=O)N[C@@H](Cc2ccc(O)cc2)C(=O)N[C@@H](CCCC)C(=O)N[C@@H](CC(=O)O)C(=O)N[C@@H](CCCNC(=N)N)C(=O)N[C@@H](CC(C)C)C(=O)N[C@@H](CCCCC)C(=O)N2CCC[C@H]2C(=O)N[C@@H](C(C)C)C(=O)N[C@@H](CC(=O)O)C(=O)N[C@H](C(=O)N[C@@H](CO)C(N)=O)CSCC(=O)N[C@@H](Cc2ccccc2)C(=O)N[C@@H](Cc2c[nH]c3ccccc23)C(=O)N[C@@H](CC(=O)O)C1=O [Example 1366] ({CH2CO}-FWD[NHexGly]Y[Nle]DRL[Ahp(2)]PVDCS-NH2; thioether N-14)
- pIC50 (read-out: HC CBA mVISTA IC50): 7.94

SMILES: CCCCCCN1CC(=O)N[C@@H](Cc2ccc(O)cc2)C(=O)N[C@@H](CC(C)C)C(=O)N[C@@H](CC(N)=O)C(=O)N[C@@H](CCCN)C(=O)N(C)[C@@H](CC(C)C)C(=O)N[C@@H](CCCCC)C(=O)N2CCC[C@H]2C(=O)N[C@@H](C(C)(C)C)C(=O)N[C@@H](CO)C(=O)N[C@H](C(=O)N[C@@H](CC(=O)NCCOCCOCC(=O)N[C@@H](CC(=O)O)C(=O)NCCOCCOCC(=O)NCCCCCCCCCCC(=O)O)C(=O)O)CSCC(=O)N[C@@H](Cc2ccccc2)C(=O)N[C@@H](Cc2ccc(O)cc2)C(=O)N[C@@H](CC(=O)O)C1=O [Example 2000] ({CH2CO}-FYD[NHexGly]YLN[Orn][NMeL][Ahp(2)]P[Tle]SC[βAsp][AEEA]D[AEEA][Aun]-OH; thioether N-14)
- pIC50 (cell-based binding high-content assay, mVISTA, read-out: HC CBA miPr ISTA IC50): 7.79

SMILES: CCCCCCN1CC(=O)N[C@@H](Cc2ccc(O)cc2)C(=O)N[C@@H](CCCC)C(=O)N[C@@H](CC(=O)O)C(=O)N[C@@H](CCCN)C(=O)N[C@@H](CC(C)C)C(=O)N[C@@H](CCCCC)C(=O)N2CCC[C@H]2C(=O)N[C@@H](C(C)C)C(=O)N[C@@H](CC(=O)O)C(=O)N[C@H](C(=O)N[C@@H](CO)C(N)=O)CSCC(=O)N[C@@H](Cc2ccc3ccccc3c2)C(=O)N[C@@H](Cc2c[nH]c3ccccc23)C(=O)N[C@@H](CC(=O)O)C1=O [compound 1236] ({CH2CO}-[2Nal]WD[NHexGly]Y[Nle]D[Orn]L[Ahp(2)]PVDCS-NH2; thioether N-14)
- pIC50 [2]: 7.56

SMILES: CCCCCCN1CC(=O)N[C@@H](Cc2ccc(O)cc2)C(=O)N[C@@H](CC(C)C)C(=O)N[C@@H](CC(N)=O)C(=O)N[C@@H](CCCNC(=N)N)C(=O)N[C@@H](CC(C)C)C(=O)N[C@@H](CCCCC)C(=O)N2CCC[C@H]2C(=O)N[C@@H](C(C)C)C(=O)N[C@@H](C(C)C)C(=O)N[C@H](C(=O)NCCOCCOCC(=O)N[C@@H](CC(=O)O)C(=O)NCCOCCOCC(=O)NCCCCCCCCCCC(=O)O)CSCC(=O)N[C@@H](Cc2ccccc2)C(=O)N[C@@H](Cc2cccc(C)c2)C(=O)N[C@@H](CC(=O)O)C1=O (stereo in doubt) [compound 2289]
- pIC50 (cell-based binding high-content assay, read-out: HC CBA miPrISTA IC50): 7.80

SMILES: CCCCCCN1CC(=O)N[C@@H](Cc2ccc(O)cc2)C(=O)N[C@@H](CCCC)C(=O)N[C@@H](CC(=O)O)C(=O)N[C@@H](CCCNC(=N)N)C(=O)N[C@@H](CC(C)C)C(=O)N[C@@H](CCCCC)C(=O)N2CCC[C@H]2C(=O)N[C@@H](C(C)C)C(=O)N[C@@H](CC(=O)O)C(=O)N[C@H](C(=O)N[C@@H](CC(=O)O)C(N)=O)CSCC(=O)N[C@@H](Cc2ccc3ccccc3c2)C(=O)N[C@@H](Cc2c[nH]c3ccccc23)C(=O)N[C@@H](CC(=O)O)C1=O [compound 1226] ({CH2CO}-[2Nal]WD[NHexGly]Y[Nle]DRL[Ahp(2)]PVDCD-NH2; thioether N-14)
- pIC50 [2]: 7.84

SMILES: CCCCCCN1CC(=O)N[C@@H](Cc2ccc(O)cc2)C(=O)N[C@@H](CCCC)C(=O)N[C@@H](CC(N)=O)C(=O)N[C@@H](CCCNC(=N)N)C(=O)N(C)[C@@H](CCCC)C(=O)N[C@@H](CCCCC)C(=O)N2CCC[C@H]2C(=O)N[C@@H](C(C)(C)C)C(=O)N[C@@H](CO)C(=O)N[C@H](C(=O)NCCOCCOCC(=O)N[C@@H](CCC(=O)NCCOCCOCC(=O)NCCCCCCCCCCC(=O)O)C(=O)O)CSCC(=O)N[C@@H](Cc2ccc3ccccc3c2)C(=O)N[C@@H](Cc2ccc(O)cc2)C(=O)N[C@@H](CC(=O)O)C1=O [compound 2227] ({CH2CO}-[2Nal]YD[NHexGly]Y[Nle]NR[NMeNle][Ahp(2)]P[Tle]SC[AEEA][γGlu][AEEA][Aun]-OH; thioether N-14)
- pIC50 (read-out: HC CBA mVISTA IC50): 7.38

Next, values leading:

- pIC50 [1]: 7.65
SMILES: CCCCCCN1CC(=O)N[C@@H](Cc2ccc(O)cc2)C(=O)N[C@@H](CCCC)C(=O)N[C@@H](CC(=O)O)C(=O)N[C@@H](CCCN)C(=O)N[C@@H](CC(C)C)C(=O)N[C@@H](CCCCC)C(=O)N2CCC[C@H]2C(=O)N[C@@H](C(C)C)C(=O)N[C@@H](CO)C(=O)N[C@H](C(=O)NCC(N)=O)CSCC(=O)N[C@@H](Cc2ccccc2)C(=O)N[C@@H](Cc2ccc(O)cc2)C(=O)N[C@@H](CC(=O)O)C1=O [Example 1048] ({CH2CO}-FYD[NHexGly]Y[Nle]D[Orn]L[Ahp(2)]PVSCG-NH2; thioether N-14)

- pIC50 [2]: 7.45
SMILES: CCCCCCN1CC(=O)N[C@@H](Cc2ccc(O)cc2)C(=O)N[C@@H](CCCC)C(=O)N[C@@H](CC(N)=O)C(=O)N[C@@H](CCCNC(=N)N)C(=O)N(C)[C@@H](CCCC)C(=O)N[C@@H](CCCCC)C(=O)N2CCC[C@H]2C(=O)N[C@@H](C(C)C)C(=O)N[C@@H](CO)C(=O)N[C@H](C(=O)NCC(=O)O)CSCC(=O)N[C@@H](Cc2ccc3ccccc3c2)C(=O)N[C@@H](Cc2c[nH]c3ccccc23)C(=O)N[C@@H](CC(=O)O)C1=O [compound 1247] ({CH2CO}-[2Nal]WD[NHexGly]Y[Nle]NR[NMeNle][Ahp(2)]PVSCG-OH; thioether N-14)

- pIC50 (read-out: HC CBA mVISTA IC50): 7.66
SMILES: C=CCOc1ccc(C[C@@H]2NC(=O)CSC[C@@H](C(=O)NCC(N)=O)NC(=O)[C@H](CO)NC(=O)[C@H](C(C)C)NC(=O)[C@@H]3CCCN3C(=O)[C@H](CCCCC)NC(=O)[C@H](CCCC)N(C)C(=O)[C@H](CCCNC(=N)N)NC(=O)[C@H](CC(N)=O)NC(=O)[C@H](CC(C)C)NC(=O)[C@H](Cc3ccc(O)cc3)NC(=O)CN(CCCCCC)C(=O)[C@H](CC(=O)O)NC(=O)[C@H](Cc3ccc(O)cc3)NC2=O)cc1 [compound 1222] ({CH2CO}-Y(Allyl)YD[NHexGly]YLNR[NMeNle][Ahp(2)]PVSCG-NH2; thioether N-14)

- pIC50 [1]: 7.39
SMILES: CCCCCCN1CC(=O)N[C@@H](Cc2ccc(O)cc2)C(=O)N[C@@H](CCCCC)C(=O)NCC(=O)N[C@@H](CCCNC(=N)N)C(=O)N[C@@H](Cc2ccc(O)cc2)C(=O)N[C@@H](CCCCC)C(=O)N2CCC[C@H]2C(=O)N[C@@H](C(C)C)C(=O)N[C@@H](CO)C(=O)N[C@H](C(=O)NCC(N)=O)CSCC(=O)N[C@@H](Cc2ccccc2)C(=O)N[C@@H](Cc2ccc(O)cc2)C(=O)N[C@@H](CC(=O)O)C1=O [Example 1093] ({CH2CO}-FYD[NHexGly]Y[Ahp(2)]GRY[Ahp(2)]PVSCG-NH2; thioether N-14)

- pIC50 [1]: 8.02
SMILES: CCCCCCN1CC(=O)N[C@@H](Cc2ccc(O)cc2)C(=O)N[C@@H](CC(C)C)C(=O)NCC(=O)N[C@@H](CCCNC(=N)N)C(=O)N[C@@H](CC(C)C)C(=O)N[C@@H](CCCCC)C(=O)N2CCC[C@H]2C(=O)N[C@@H](C(C)C)C(=O)N[C@@H](CO)C(=O)N[C@H](C(=O)NCC(N)=O)CSCC(=O)N[C@@H](Cc2ccccc2)C(=O)N[C@@H](Cc2ccc(O)cc2)C(=O)N[C@@H](CC(=O)O)C1=O [Example 1049] ({CH2CO}-FYD[NHexGly]YLGRL[Ahp(2)]PVSCG-NH2; thioether N-14)

- pIC50 (read-out: HC CBA mVISTA IC50): 7.72
SMILES: CCCCCCN1CC(=O)N[C@@H](Cc2ccc(O)cc2)C(=O)N[C@@H](CCCC)C(=O)N[C@@H](CC(N)=O)C(=O)N[C@@H](CCCNC(N)=O)C(=O)N2Cc3ccccc3C[C@H]2C(=O)N[C@@H](CCCCC)C(=O)N2CCC[C@H]2C(=O)N[C@@H](C(C)C)C(=O)N[C@@H](CO)C(=O)N[C@H](C(=O)NCC(N)=O)CSCC(=O)N[C@@H](Cc2ccccc2)C(=O)N[C@@H](Cc2c[nH]c3ccccc23)C(=O)N[C@@H](CC(=O)O)C1=O [Example 1413] ({CH2CO}-FWD[NHexGly]Y[Nle]N[Cit][Tic][Ahp(2)]PVSCG-NH2; thioether N-14)

- pIC50 (cell-based binding high-content assay, mVISTA, the 16th table, read-out: HC CBA mVISTA IC50): 8.25
SMILES: CCCCCCN1CC(=O)N[C@@H](Cc2ccc(O)cc2)C(=O)N[C@@H](CCCC)C(=O)N[C@@H](CC(N)=O)C(=O)N[C@@H](CCCNC(N)=O)C(=O)N(C)[C@@H](CCCC)C(=O)N[C@@H](CCCCC)C(=O)N2CCC[C@H]2C(=O)N[C@@H](C(C)C)C(=O)N[C@@H](CC(=O)O)C(=O)N[C@H](C(=O)NCC(=O)O)CSCC(=O)N[C@@H](Cc2ccc3ccccc3c2)C(=O)N[C@@H](Cc2ccc(O)cc2)C(=O)N[C@@H](CC(=O)O)C1=O [Ex 1301] ({CH2CO}-[2Nal]YD[NHexGly]Y[Nle]N[Cit][NMeNle][Ahp(2)]PVDCG-OH; thioether N-14)

- pIC50 [2]: 8.16
SMILES: CCCCCCN1CC(=O)N[C@@H](Cc2ccc(O)cc2)C(=O)N[C@@H](CCCC)C(=O)N[C@@H](CC(N)=O)C(=O)N[C@@H](CCCNC(N)=O)C(=O)N(C)[C@@H](CCCC)C(=O)N[C@@H](CCCCC)C(=O)N2CCC[C@H]2C(=O)N[C@@H](C(C)C)C(=O)N[C@@H](CC(=O)O)C(=O)N[C@H](C(=O)NCC(=O)O)CSCC(=O)N[C@@H](Cc2ccc3ccccc3c2)C(=O)N[C@@H](Cc2c[nH]c3ccccc23)C(=O)N[C@@H](CC(=O)O)C1=O [compound 1253] ({CH2CO}-[2Nal]WD[NHexGly]Y[Nle]N[Cit][NMeNle][Ahp(2)]PVDCG-OH; thioether N-14)
